“Also recorded” adds a separate entry of the source.
Legend:
[1] = test system: thrombin generation in human PRP; experiment: Studies regarding measurement conditions: ADP alone on thrombin generation in human PRP; format: cell-based; settings: ADP final concentration 5, 10 or 20 μM, no TF
[2] = test system: thrombin generation in human PRP; settings: Example 2; Edoxaban 40, 80 ng/mL; Ticagrelor 3 μg/mL; ADP 10 μM, TF 0.25 pM
Experimental: The obtained blood was centrifuged at room temperature at 150×g for 10 minutes, so that a supernatant was obtained as PRP. The residue obtained after separation of the PRP was centrifuged at room temperature at 2000×g for 10 minutes, so that a supernatant was obtained as platelet poor plasma (hereinafter also referred to as “PPP”). The PRP was diluted with the PPP, so that the number of platelets in the PRP could be 2×10^5 platelets/μL. The obtained PRP was left at 16° C. for 30 minutes or more, and it was then used for the measurement of thrombin generation.
10 μL of a 1% DMSO-containing saline was added to a 96-well plate, and 70 μL of the above obtained human PRP was then added thereto. […]
Five to seven minutes later, 20 μL of the heated FluCa-kit liquid (manufactured by Thrombinoscope BV) was added to the well, so that the reaction was initiated. Using a fluorophotometer (Fluoroskan Ascent, manufactured by Thermo Scientific), the fluorescence intensity at ex 390 nm/em 460 nm was measured at 37° C. for 150 minutes, and using Thrombinoscope software (manufactured by Thrombinoscope BV), Lag time (min), Time to Peak (min), ETP (nM×min), Peak (nM), and MaxR (nM/min) were calculated. […]
Subsequently, individual parameters were calculated in the same manner as that in the above “Studies regarding measurement conditions.” […]

SMILES	Effect of ADP alone on thrombin generation [1]	Effect on thrombin generation, agent used alone compared to controls [2]
Nc1ncnc2c1ncn2[C@@H]1O[C@H](COP(=O)(O)OP(=O)(O)O)[C@@H](O)[C@H]1O [ADP, adenosine diphosphate]	provokes thrombin generation	
CCCSc1nc(N[C@@H]2C[C@H]2c2ccc(F)c(F)c2)c2nnn([C@@H]3C[C@H](OCCO)[C@@H](O)[C@H]3O)c2n1 [Ticagrelor]		suppresses the generation of thrombin; also recorded: significantly suppresses thrombin generation, in terms of Peak, Time to Peak, and MaxR
